Assay results taken from the supplement of paper PMC11061612.

What was measured:
[1] = test system: TGW (Neuroblastoma); assay: Bliss excess, mean over the matrix (fraction); higher = more synergy
Procedure, shortened: (§1)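 Bliss excess equals the observed combination effect minus the expected value EA + EB − EA·EB, where EA and EB are the effects of each agent alone. Combination Emax is the second-highest inhibition within the matrix. Inhibition was scaled from CellTiter-Glo 2.0 luminescence, with 0 set by vehicle wells and 1 by blank wells, after 72 hours of two-drug dosing of cells plated in 1536-well plates.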

[2] = test system: UACC-62 (Melanoma); assay: as above
Procedure, shortened: as §1

| Structure (SMILES) | Bliss excess [1] | Bliss excess [2] |
| --- | --- | --- |
| Cc1c2c(nn1C)CSCc1cc(n(C)n1)CSc1cc(c3ccccc3c1)OCCCc1c(C(=O)O)n(C)c3c-2c(Cl)ccc13 [AZD5991] + CS(=O)(=O)CCNCc1ccc(-c2ccc3ncnc(Nc4ccc(OCc5cccc(F)c5)c(Cl)c4)c3c2)o1 [Lapatinib] (first compound max 1 µM, 7x7, partner max 10 µM) | -0.0015 | -0.0376 |
| O=C(c1cc(Cc2n[nH]c(=O)c3ccccc23)ccc1F)N1CCN(C(=O)C2CC2)CC1 [Olaparib] + CC1(C)CCC(CN2CCN(c3ccc(C(=O)NS(=O)(=O)c4ccc(NCC5CCOCC5)c([N+](=O)[O-])c4)c(Oc4cnc5[nH]ccc5c4)c3)CC2)=C(c2ccc(Cl)cc2)C1 [Venetoclax] (first compound max 10 µM, 7x7, partner max 1 µM) | -0.0225 | -0.007 |
| O=C(c1cc(Cc2n[nH]c(=O)c3ccccc23)ccc1F)N1CCN(C(=O)C2CC2)CC1 [Olaparib] + COc1nnc2ccc(N3CCC(c4ccc(OCCN5CCN(C)C(=O)[C@H]5C)cc4)CC3)nn12 [AZD5153] (first compound max 10 µM, 7x7, partner max 1 µM) | -0.054 | 0.0387 |
| Cn1cnc2c(F)c(Nc3ccc(Br)cc3Cl)c(C(=O)NOCCO)cc21 [Selumetinib] + C[C@@H]1COCCN1C2=NC(=NC(=C2)C3(CC3)[S@](=N)(=O)C)C4=C5C=CNC5=NC=C4 [AZD6738] (first compound max 10 µM, 7x7, partner max 10 µM) | -0.0288 | 0.063 |
| C[C@@H](Nc1cc(F)cc(F)c1)c1cc(C(=O)N(C)C)cc2c(=O)cc(N3CCOCC3)oc12 [AZD8186] + CC(=O)c1c(C)c2cnc(Nc3ccc(N4CCNCC4)cn3)nc2n(C2CCCC2)c1=O [Palbociclib] (first compound max 10 µM, 7x7, partner max 10 µM) | -0.0397 | 0.0303 |
| C[C@@H](Oc1cc(-c2cnn(C3CCNCC3)c2)cnc1N)c1c(Cl)ccc(F)c1Cl [Crizotinib] + Cn1cnc2c(F)c(Nc3ccc(Br)cc3Cl)c(C(=O)NOCCO)cc21 [Selumetinib] (first compound max 10 µM, 7x7, partner max 10 µM) | -0.0252 | -0.0229 |
| COc1nnc2ccc(N3CCC(c4ccc(OCCN5CCN(C)C(=O)[C@H]5C)cc4)CC3)nn12 [AZD5153] + Cn1cnc2c(F)c(Nc3ccc(Br)cc3Cl)c(C(=O)NOCCO)cc21 [Selumetinib] (first compound max 1 µM, 7x7, partner max 10 µM) | -0.0392 | 0.0397 |
| CN(CCO)CC[C@H](CSc1ccccc1)Nc1ccc(S(=O)(=O)NC(=O)c2ccc(N3CCC([C@@H](O)c4ccccc4-c4ccc(Cl)cc4)CC3)cc2)cc1S(=O)(=O)C(F)(F)F [AZD4320] + CS(=O)(=O)CCNCc1ccc(-c2ccc3ncnc(Nc4ccc(OCc5cccc(F)c5)c(Cl)c4)c3c2)o1 [Lapatinib] (first compound max 1 µM, 7x7, partner max 10 µM) | 0.0959 | -0.0143 |
| Cc1nc(-c2cn3c(n2)-c2ccc(-c4cnn(C(C)(C)C(N)=O)c4)cc2OCC3)n(C(C)C)n1 [Taselisib] + O=C(Nc1ccc2[nH]nc(-c3ccncc3)c2c1)[C@@H]1CCN(CC(=O)N2CCN(c3ccc(-c4ncccn4)cc3)CC2)C1 [SCH772984] (first compound max 10 µM, 7x7, partner max 5 µM) | 0.033 | -0.035 |
| CC(=O)c1c(C)c2cnc(Nc3ccc(N4CCNCC4)cn3)nc2n(C2CCCC2)c1=O [Palbociclib] + Cn1cnc2c(F)c(Nc3ccc(Br)cc3Cl)c(C(=O)NOCCO)cc21 [Selumetinib] (first compound max 10 µM, 7x7, partner max 10 µM) | 0.0125 | -0.0359 |
| CC(=O)c1c(C)c2cnc(Nc3ccc(N4CCNCC4)cn3)nc2n(C2CCCC2)c1=O [Palbociclib] + Cc1c2c(nn1C)CSCc1cc(n(C)n1)CSc1cc(c3ccccc3c1)OCCCc1c(C(=O)O)n(C)c3c-2c(Cl)ccc13 [AZD5991] (first compound max 10 µM, 7x7, partner max 1 µM) | -0.079 | -0.0612 |
| C=CCn1c(=O)c2cnc(Nc3ccc(N4CCN(C)CC4)cc3)nc2n1-c1cccc(C(C)(C)O)n1 [AZD1775] + CCc1c2c(nc3ccc(O)cc13)-c1cc3c(c(=O)n1C2)COC(=O)[C@]3(O)CC [SN-38] (first compound max 1 µM, partner max 0.3 µM) | -0.0592 | -0.0497 |
| CC1(C)CCC(CN2CCN(c3ccc(C(=O)NS(=O)(=O)c4ccc(NCC5CCOCC5)c([N+](=O)[O-])c4)c(Oc4cnc5[nH]ccc5c4)c3)CC2)=C(c2ccc(Cl)cc2)C1 [Venetoclax] + CS(=O)(=O)CCNCc1ccc(-c2ccc3ncnc(Nc4ccc(OCc5cccc(F)c5)c(Cl)c4)c3c2)o1 [Lapatinib] (first compound max 1 µM, 7x7, partner max 10 µM) | -0.0223 | -0.0044 |
| NC1(C(=O)N[C@@H](CCO)c2ccc(Cl)cc2)CCN(c2ncnc3[nH]ccc23)CC1 [Capivasertib] + COc1nnc2ccc(N3CCC(c4ccc(OCCN5CCN(C)C(=O)[C@H]5C)cc4)CC3)nn12 [AZD5153] (first compound max 10 µM, 7x7, partner max 1 µM) | -0.0364 | -0.0551 |
| NC1(C(=O)N[C@@H](CCO)c2ccc(Cl)cc2)CCN(c2ncnc3[nH]ccc23)CC1 [Capivasertib] + Cn1cnc2c(F)c(Nc3ccc(Br)cc3Cl)c(C(=O)NOCCO)cc21 [Selumetinib] (first compound max 10 µM, 7x7, partner max 10 µM) | -0.104 | 0.0562 |
| Cn1cnc2c(F)c(Nc3ccc(Br)cc3Cl)c(C(=O)NOCCO)cc21 [Selumetinib] + CCN(CCO)CCCOc1ccc2c(Nc3cc(CC(=O)Nc4cccc(F)c4)[nH]n3)ncnc2c1 [AZD2811] (first compound max 10 µM, 7x7, partner max 1 µM) | -0.026 | -0.0289 |
| COc1nnc2ccc(N3CCC(c4ccc(OCCN5CCN(C)C(=O)[C@H]5C)cc4)CC3)nn12 [AZD5153] + C=CCn1c(=O)c2cnc(Nc3ccc(N4CCN(C)CC4)cc3)nc2n1-c1cccc(C(C)(C)O)n1 [AZD1775] (first compound max 1 µM, partner max 1 µM) | -0.0689 | -0.0529 |
| CS(=O)(=O)CCNCc1ccc(-c2ccc3ncnc(Nc4ccc(OCc5cccc(F)c5)c(Cl)c4)c3c2)o1 [Lapatinib] + Cn1cnc2c(F)c(Nc3ccc(Br)cc3Cl)c(C(=O)NOCCO)cc21 [Selumetinib] (first compound max 10 µM, 7x7, partner max 10 µM) | -0.079 | -0.0119 |
| Cc1c2c(nn1C)CSCc1cc(n(C)n1)CSc1cc(c3ccccc3c1)OCCCc1c(C(=O)O)n(C)c3c-2c(Cl)ccc13 [AZD5991] + CC(=O)O[C@H]1C(=O)[C@@]2(C)[C@H]([C@H](OC(=O)c3ccccc3)[C@]3(O)C[C@H](OC(=O)[C@H](O)[C@@H](NC(=O)c4ccccc4)c4ccccc4)C(C)=C1C3(C)C)[C@]1(OC(C)=O)CO[C@@H]1C[C@@H]2O [Paclitaxel] (first compound max 1 µM, 7x7, partner max 3 µM) | -0.0235 | 0.115 |
| CC(=O)c1c(C)c2cnc(Nc3ccc(N4CCNCC4)cn3)nc2n(C2CCCC2)c1=O [Palbociclib] + CC1(C)CCC(CN2CCN(c3ccc(C(=O)NS(=O)(=O)c4ccc(NCC5CCOCC5)c([N+](=O)[O-])c4)c(Oc4cnc5[nH]ccc5c4)c3)CC2)=C(c2ccc(Cl)cc2)C1 [Venetoclax] (first compound max 10 µM, 7x7, partner max 1 µM) | -0.014 | -0.0678 |
| NC1(C(=O)N[C@@H](CCO)c2ccc(Cl)cc2)CCN(c2ncnc3[nH]ccc23)CC1 [Capivasertib] + CCN(CCO)CCCOc1ccc2c(Nc3cc(CC(=O)Nc4cccc(F)c4)[nH]n3)ncnc2c1 [AZD2811] (first compound max 10 µM, 7x7, partner max 1 µM) | -0.0911 | -0.016 |
| CS(=O)(=O)CCNCc1ccc(-c2ccc3ncnc(Nc4ccc(OCc5cccc(F)c5)c(Cl)c4)c3c2)o1 [Lapatinib] + C[C@@H](Oc1cc(-c2cnn(C3CCNCC3)c2)cnc1N)c1c(Cl)ccc(F)c1Cl [Crizotinib] (first compound max 10 µM, 7x7, partner max 10 µM) | -0.0659 | -0.0153 |
| C=CCn1c(=O)c2cnc(Nc3ccc(N4CCN(C)CC4)cc3)nc2n1-c1cccc(C(C)(C)O)n1 [AZD1775] + Nc1ccn([C@@H]2O[C@H](CO)[C@@H](O)C2(F)F)c(=O)n1 [Gemcitabine] (first compound max 1 µM, partner max 0.3 µM) | -0.0355 | 0.0399 |
| CS(=O)(=O)CCNCc1ccc(-c2ccc3ncnc(Nc4ccc(OCc5cccc(F)c5)c(Cl)c4)c3c2)o1 [Lapatinib] + NC1(c2ccc(-c3nc4ccn5c(=O)[nH]nc5c4cc3-c3ccccc3)cc2)CCC1 [MK-2206] (first compound max 10 µM, 7x7, partner max 10 µM) | -0.0033 | 0.0426 |
| NC1(C(=O)N[C@@H](CCO)c2ccc(Cl)cc2)CCN(c2ncnc3[nH]ccc23)CC1 [Capivasertib] + CC(=O)c1c(C)c2cnc(Nc3ccc(N4CCNCC4)cn3)nc2n(C2CCCC2)c1=O [Palbociclib] (first compound max 10 µM, 7x7, partner max 10 µM) | -0.0744 | -0.057 |
| O=C(c1cc(Cc2n[nH]c(=O)c3ccccc23)ccc1F)N1CCN(C(=O)C2CC2)CC1 [Olaparib] + CN(CC[C@H](CSC1=CC=CC=C1)NC2=C(C=C(C=C2)S(=O)(=O)NC(=O)C3=CC=C(C=C3)N4CCC(CC4)[C@H](C5=CC=CC=C5C6=CC=C(C=C6)Cl)O)S(=O)(=O)C(F)(F)F)CCO [AZD4320] (first compound max 10 µM, 7x7, partner max 1 µM) | -0.0479 | -0.0105 |
| NC1(C(=O)N[C@@H](CCO)c2ccc(Cl)cc2)CCN(c2ncnc3[nH]ccc23)CC1 [Capivasertib] + CC(C)n1c(=O)n(C)c2cnc3cc(F)c(-c4ccc(OCCCN5CCCCC5)nc4)cc3c21 [AZD1390] (first compound max 10 µM, 7x7, partner max 0.3 µM) | -0.106 | -0.0888 |
